In patent publication US20220281835A1, “PHENOL DERIVATIVES FOR USE AS ANTIMICROBIAL, ANTIBACTERIAL, BACTERICIDE” (SPECIAL PRODUCT'S LINE S.P.A., priority 2019, published 2022):
In brackets after ≈: the same amount, converted by molar mass.

Assays:
[1] = system: S. Aureus strain 1 (collection) mec a+; assay: MIC/MBC broth-dilution (micromethod), CLSI; assay type: cell-based; details: Staphylococcus aureus; for MBC: kills 99,9% of initial population
Text: (§1) Determination of Minimal Inhibitory Concentration (MIC), Minimal Bactericidal Concentration (MBC), bactericidal curves and killing rate on Gram positive and Gram negative bacteria strains, for the evaluation of the bactericidal activity of compounds of example 1 (n. 1 to 14).
(§2) In details, phenotypic methods based on in vitro MIC and MBC determination have been performed on previously isolated bacterial strains, identified and characterized at the level of their antibiotic susceptibility profile. According to MIC and MBC data, the Killing Rate was calculated as the ratio between MBC and MIC on which basis it is possible to define the compounds tested as bactericides (killing rate=1-4), or bacteriostatic (killing rate >4).
(§3) Preparation of the solution containing molecules: for each molecule to be tested, solutions were made as DMSO Stock, with a concentration of 2.560 mg/ml, used to test 12 dilutions with the following scalar drug concentrations: 512-256-128-64-32-16-8-4-2-1-0.5-0.25 μg/ml. The scalar dilutions were prepared directly on plates by using Mueller Hinton Broth (MHB) as a solvent.
Bacterial suspension preparation: cryostrains preserved at −80° C. were recovered by incubation in growth medium (Brain Heart Infusion Broth, BHI) for 24-48 hours at 37° C. followed by passages in agar growth medium (Columbia Blood Agar). Colonies with less than 30 hours are suspended in MHB with the purpose to prepare a bacterial suspension with a turbidity of 0.5 MF, containing approximately 1.5×10^8 cfu/ml. This injection is additionally diluted in MHB until reaching a final concentration of 5×10^5 cfu/ml (range 3-7×10^5 cfu/ml). Identical volumes of this bacterial suspension are added on a plate, for each well containing drug scalar dilutions, to obtain a final concentration between 512 a 0.25 μg/ml. The set up of bacterial suspensions as well as the passage on slate has always been performed within 30 minutes, in order not to alter the concentration of the bacterial suspension. Simultaneously, check in broth-microdilution only with solvent (in order to exclude that the effect of growth inhibition might be due to the drug solution solvent), positive growth control in absence of DMSO and drug, and negative purity control only with injection broth are performed. As a consequence the slate is incubated at 37° C. for 24 and 48 hours in aerobes. […] The same observations are valid to evaluate 48 hours MIC. After the incubation, an equal volume of bacterial suspension from each well is plated on agar growth medium and incubated for 24-48 hours at a temperature of 37° C. in aerobes, in order to define the MBC after the incubation.
Bacterial strains: the bactericidal and/or bacteriostatic power of the synthesized compounds can be determined by using standard reference strains such as: • 1. S. Aureus ATCC 25923 res kan, tob, res streptogramine (sga-sgb, efflux), res mupirocina (at low level), res trimetoprim; • 2. S. Aureus strain 1 (collection) mec a+, res kan tob gen, res quinolones, lincosamides, res streptogramine (sga-sgb), mlsb+sa constituent, mlsb constituent, res mupirocine (low level), res trimetoprim; • 3. S. Aureus strain 2 (collection) acquired penicillinase, res kan tob, res streptogramine (sga-sgb, efflux), res mupirocine (low level), res trimetoprim; • 4. Enterococcus faecalis ATCC 51299 (str+gen res at high level, mlsb res, simil van b res); • 5. Enterococcus faecalis strain 1 (collection) (str+kan res at high level str res at high level tetracycline res); • 6. Enterococcus faecalis strain 2 (collection) (kan res at high level); • 7. E. coli of Collection: RESISTANT to ampicilline, amox+ac clav, ampicillinr+sulbactam, cefalexine, cefuroxime, cefuroxime axetil, cefixime, cefpodoxime, cefotaxime, ceftazidime, ceftriaxone, netilmicine, tobramicine, ciprofloxcine, trim/sulfametox, esbl pos, SENSITIVE to meropenem and gentamicine, INTERMEDIATE to amikacine; • 8. 8.

[2] = system: Enterococcus faecalis strain 2 (collection); assay: MIC/MBC broth-dilution (micromethod), CLSI; assay type: cell-based; details: for MBC: E. FAECALIS strain 2, kills 99,9% of initial population
Text: as §1
as §2, with “Sensitivity tests have been performed in broth-dilution (micromethod) with the purpose to test the possible bacteriostatic and/or bactericidal power in different compounds, in accordance with CLSI guidelines (Clinical and Laboratory Standards Institute). In” for “In”
as §3
(§4) Bacterial suspension preparation: cryostrains preserved at −80° C. were recovered by incubation in growth medium (Brain Heart Infusion Broth, BHI) for 24-48 hours at 37° C. followed by passages in agar growth medium (Columbia Blood Agar). Colonies with less than 30 hours are suspended in MHB with the purpose to prepare a bacterial suspension with a turbidity of 0.5 MF, containing approximately 1.5×10^8 cfu/ml. This injection is additionally diluted in MHB until reaching a final concentration of 5×10^5 cfu/ml (range 3-7×10^5 cfu/ml). Identical volumes of this bacterial suspension are added on a plate, for each well containing drug scalar dilutions, to obtain a final concentration between 512 a 0.25 μg/ml. The set up of bacterial suspensions as well as the passage on slate has always been performed within 30 minutes, in order not to alter the concentration of the bacterial suspension. Simultaneously, check in broth-microdilution only with solvent (in order to exclude that the effect of growth inhibition might be due to the drug solution solvent), positive growth control in absence of DMSO and drug, and negative purity control only with injection broth are performed. As a consequence the slate is incubated at 37° C. for 24 and 48 hours in aerobes. The 24 hours MIC is considered as the minimum drug concentration able to inhibit bacterial growth, which makes it possible to observe the absence of bacterial growth and the absence of turbidity. The same observations are valid to evaluate 48 hours MIC. After the incubation, an equal volume of bacterial suspension from each well is plated on agar growth medium and incubated for 24-48 hours at a temperature of 37° C. in aerobes, in order to define the MBC after the incubation. The MBC is evaluated as the minimum concentration of drug able to kill the 99,9% of the initial bacterial population.
(§5) Bacterial strains: the bactericidal and/or bacteriostatic power of the synthesized compounds can be determined by using standard reference strains such as: • 1. S. Aureus ATCC 25923 res kan, tob, res streptogramine (sga-sgb, efflux), res mupirocina (at low level), res trimetoprim; • 2. S. Aureus strain 1 (collection) mec a+, res kan tob gen, res quinolones, lincosamides, res streptogramine (sga-sgb), mlsb+sa constituent, mlsb constituent, res mupirocine (low level), res trimetoprim; • 3. S. Aureus strain 2 (collection) acquired penicillinase, res kan tob, res streptogramine (sga-sgb, efflux), res mupirocine (low level), res trimetoprim; • 4. Enterococcus faecalis ATCC 51299 (str+gen res at high level, mlsb res, simil van b res); • 5. […]

[3] = system: P. Aeruginosa of collection; assay: MIC/MBC broth-dilution (micromethod), CLSI; assay type: cell-based; details: Pseudomonas aeruginosa
Text: as §1
as §2, with “Sensitivity tests have been performed in broth-dilution (micromethod) with the purpose to test the possible bacteriostatic and/or bactericidal power in different compounds, in accordance with CLSI guidelines (Clinical and Laboratory Standards Institute). In” for “In”
as §3, §4, §5

[4] = system: Enterococcus faecalis strain 1 (collection); assay: MIC/MBC broth-dilution (micromethod), CLSI; assay type: cell-based; details: E. FAECALIS strain 1, values without asterisk
Text: as §1
as §2, with “Sensitivity tests have been performed in broth-dilution (micromethod) with the purpose to test the possible bacteriostatic and/or bactericidal power in different compounds, in accordance with CLSI guidelines (Clinical and Laboratory Standards Institute). In” for “In”
as §3, §4, §5

[5] = system: S. Aureus strain 2 (collection); assay: MIC/MBC broth-dilution (micromethod), CLSI; assay type: cell-based; details: Staphylococcus aureus, marked *: MIC value read at 48 hours
Text: as §1
as §2, with “Sensitivity tests have been performed in broth-dilution (micromethod) with the purpose to test the possible bacteriostatic and/or bactericidal power in different compounds, in accordance with CLSI guidelines (Clinical and Laboratory Standards Institute). In” for “In”
as §3, §4, §5

[6] = system: Enterococcus faecalis ATCC 51299; assay: MIC/MBC broth-dilution (micromethod), CLSI; assay type: cell-based; details: ATCC51299, E. FAECALIS ATCC 51299, values without asterisk
Text: as §1
as §2, with “Sensitivity tests have been performed in broth-dilution (micromethod) with the purpose to test the possible bacteriostatic and/or bactericidal power in different compounds, in accordance with CLSI guidelines (Clinical and Laboratory Standards Institute). In” for “In”
as §3, §4, §5

S. Aureus ATCC 25923 = assay: MIC/MBC broth-dilution (micromethod), CLSI; assay type: cell-based; details: Staphylococcus aureus, ATCC25923, marked *: MIC value read at 48 hours
Text: as §1
as §2, with “Sensitivity tests have been performed in broth-dilution (micromethod) with the purpose to test the possible bacteriostatic and/or bactericidal power in different compounds, in accordance with CLSI guidelines (Clinical and Laboratory Standards Institute). In” for “In”
as §3, §4, §5

[7] = marked *: MIC value read at 48 hours
[8] = E. FAECALIS strain 2, marked *: MIC value read at 48 hours
[9] = E. FAECALIS strain 2, values without asterisk

Row | SMILES | MBC [1] | MIC [1, 7] | MBC [2] | MIC [2, 8] | MIC [2, 9] | also measured
1 | CC(=O)NCc1cc(-c2ccc(/C=C/C(=O)O)cc2)cc(C23CC4CC(CC(C4)C2)C3)c1O [Compound 17, E-3-[3′-(Acetylaminomethyl)-4′-hydroxy-5′-(adamantan-1-yl)biphenyl-4-yl]-acrylic acid] | 16 µg/mL (≈ 35.9 µM) | 4 to 8 µg/mL (≈ 8.98 to 18 µM) | 16 µg/mL (≈ 35.9 µM) | 2 to 4 µg/mL (≈ 4.49 to 8.98 µM) | – | –
2 | COc1ccc(-c2ccc(C#CC(=O)O)cc2)cc1C12CC3CC(CC(C3)C1)C2 [Compound 7, 4-(3-(1-adamantyl)-4-methoxyphenyl)propiolic acid] | – | – | – | – | – | MIC ([1]; values without asterisk): 16 µg/mL (≈ 41.4 µM)
3 | O=C(O)/C(F)=C\c1ccc(-c2ccc(O)c(C34CC5CC(CC(C5)C3)C4)c2)cc1 [Compound 5, E-2-Fluoro-3-[3′-(adamantan-1-yl)-4′-hydroxybiphenyl-4-yl]-acrylic Acid] | 8 to 16 µg/mL (≈ 20.4 to 40.8 µM) | 2 to 4 µg/mL (≈ 5.1 to 10.2 µM) | 16 µg/mL (≈ 40.8 µM) | – | 4 µg/mL (≈ 10.2 µM) | melting point: 202 °C
4 | C/C(=C\c1ccc(-c2ccc(O)c(C34CC5CC(CC(C5)C3)C4)c2)cc1)C(=O)O [Compound 3, E-2-Methyl-3-[3′-(adamantan-1-yl)-4′-hydroxybiphenyl-4-yl]acrylic Acid] | 4 to 8 µg/mL (≈ 10.3 to 20.6 µM) | – | 8 µg/mL (≈ 20.6 µM) | 0.5 to 1 µg/mL (≈ 1.29 to 2.57 µM) | – | melting point: 200 °C; MIC ([1]; values without asterisk): 2 µg/mL (≈ 5.15 µM)
5 | O=C(O)/C=C/c1ccc(-c2cc(CNC(=O)Nc3ccccc3)c(O)c(C34CC5CC(CC(C5)C3)C4)c2)cc1 [Compound 18] | 8 µg/mL (≈ 15.3 µM) | 4 to 8 µg/mL (≈ 7.65 to 15.3 µM) | 16 µg/mL (≈ 30.6 µM) | 2 to 4 µg/mL (≈ 3.83 to 7.65 µM) | – | –
6 | O=C(O)C=Cc1ccc(-c2cc3c(c(C45CC6CC(CC(C6)C4)C5)c2)OCCO3)cc1 [Compound 16, 3-{4-[8-(Adamantan-1-yl)-2,3-dihydro-benzo[1,4]-dioxin-6-yl]-phenyl}-acrylic acid] | – | 2 to 4 µg/mL (≈ 4.8 to 9.6 µM) | – | 1 to 2 µg/mL (≈ 2.4 to 4.8 µM) | – | –
7 | CCCCC/C=C\C/C=C\CCCCCCCC(=O)Oc1ccc(-c2ccc(/C=C/C(=O)O)cc2)cc1C12CC3CC(CC(C3)C1)C2 [Compound 20, (E)-Octadeca-9,12-dienoic acid 3-adamantan-1-yl-40-(2-carboxyvinyl)-biphenyl-4-yl ester] | – | 8 to 32 µg/mL (≈ 12.6 to 50.2 µM) | – | – | 128 µg/mL (≈ 201 µM) | MIC [3]: 20 µg/mL (≈ 31.4 µM)
8 | O=C(O)C=Cc1ccc(-c2ccc(OCCCCO)c(C34CC5CC(CC(C5)C3)C4)c2)cc1 [Compound 11, 3-[3′-Adamantan-1-yl-4′-(hydroxy-butoxy)-biphenyl-4-yl]-acrylic acid] | – | 64 to 256 µg/mL (≈ 143 to 573 µM) | – | – | 128 µg/mL (≈ 287 µM) | MIC [4]: 128 µg/mL (≈ 287 µM); MIC [5]: 128 to 256 µg/mL (≈ 287 to 573 µM); MIC [6]: 64 µg/mL (≈ 143 µM); MIC (S. Aureus ATCC 25923): 128 to 256 µg/mL (≈ 287 to 573 µM)
9 | O=C(O)C=Cc1ccc(-c2ccc(O)c(C34CC5CC(CC(C5)C3)C4)c2)c(C=NOCC(=O)O)c1 [Compound 14, 3-[3′-Adamant-1-yl-4′-hydroxy-2-carboxymethoxyiminomethyl-biphenyl-4-yl]-acrylic acid] | – | 64 to 128 µg/mL (≈ 135 to 269 µM) | – | 64 to 128 µg/mL (≈ 135 to 269 µM) | – | –
